Source: ChEMBL document CHEMBL1201862, “PubChem BioAssay data set” (2004)
Activity calls are given as the source filed them.

Experiments:
[1] = biological target: Intestinal-type alkaline phosphatase (Mus musculus, UniProt P24822); assay: PubChem AID 488874; format: functional
[2] = biological target: Eukaryotic translation initiation factor 4E (Mus musculus, UniProt P63073); assay: eIF4E–eIF4G protein interaction inhibitors, dose response, biochemical, TR-FRET (AID 855); format: functional;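 further: potency for disrupting eIF4E binding to eIF4GI seen as loss of FRET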
Sequence of Eukaryotic translation initiation factor 4E (P63073 whole entry): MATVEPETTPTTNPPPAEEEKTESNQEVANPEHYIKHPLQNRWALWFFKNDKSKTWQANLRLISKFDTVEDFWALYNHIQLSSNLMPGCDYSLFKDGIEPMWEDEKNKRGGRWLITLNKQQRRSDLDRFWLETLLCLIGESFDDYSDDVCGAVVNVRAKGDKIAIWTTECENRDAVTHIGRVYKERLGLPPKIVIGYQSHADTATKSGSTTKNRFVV

[3] = biological target: T1, Histone-lysine N-methyltransferase NSD2 (Homo sapiens, UniProt O96028); format: biochemical
T1 sequence (O96028 whole entry): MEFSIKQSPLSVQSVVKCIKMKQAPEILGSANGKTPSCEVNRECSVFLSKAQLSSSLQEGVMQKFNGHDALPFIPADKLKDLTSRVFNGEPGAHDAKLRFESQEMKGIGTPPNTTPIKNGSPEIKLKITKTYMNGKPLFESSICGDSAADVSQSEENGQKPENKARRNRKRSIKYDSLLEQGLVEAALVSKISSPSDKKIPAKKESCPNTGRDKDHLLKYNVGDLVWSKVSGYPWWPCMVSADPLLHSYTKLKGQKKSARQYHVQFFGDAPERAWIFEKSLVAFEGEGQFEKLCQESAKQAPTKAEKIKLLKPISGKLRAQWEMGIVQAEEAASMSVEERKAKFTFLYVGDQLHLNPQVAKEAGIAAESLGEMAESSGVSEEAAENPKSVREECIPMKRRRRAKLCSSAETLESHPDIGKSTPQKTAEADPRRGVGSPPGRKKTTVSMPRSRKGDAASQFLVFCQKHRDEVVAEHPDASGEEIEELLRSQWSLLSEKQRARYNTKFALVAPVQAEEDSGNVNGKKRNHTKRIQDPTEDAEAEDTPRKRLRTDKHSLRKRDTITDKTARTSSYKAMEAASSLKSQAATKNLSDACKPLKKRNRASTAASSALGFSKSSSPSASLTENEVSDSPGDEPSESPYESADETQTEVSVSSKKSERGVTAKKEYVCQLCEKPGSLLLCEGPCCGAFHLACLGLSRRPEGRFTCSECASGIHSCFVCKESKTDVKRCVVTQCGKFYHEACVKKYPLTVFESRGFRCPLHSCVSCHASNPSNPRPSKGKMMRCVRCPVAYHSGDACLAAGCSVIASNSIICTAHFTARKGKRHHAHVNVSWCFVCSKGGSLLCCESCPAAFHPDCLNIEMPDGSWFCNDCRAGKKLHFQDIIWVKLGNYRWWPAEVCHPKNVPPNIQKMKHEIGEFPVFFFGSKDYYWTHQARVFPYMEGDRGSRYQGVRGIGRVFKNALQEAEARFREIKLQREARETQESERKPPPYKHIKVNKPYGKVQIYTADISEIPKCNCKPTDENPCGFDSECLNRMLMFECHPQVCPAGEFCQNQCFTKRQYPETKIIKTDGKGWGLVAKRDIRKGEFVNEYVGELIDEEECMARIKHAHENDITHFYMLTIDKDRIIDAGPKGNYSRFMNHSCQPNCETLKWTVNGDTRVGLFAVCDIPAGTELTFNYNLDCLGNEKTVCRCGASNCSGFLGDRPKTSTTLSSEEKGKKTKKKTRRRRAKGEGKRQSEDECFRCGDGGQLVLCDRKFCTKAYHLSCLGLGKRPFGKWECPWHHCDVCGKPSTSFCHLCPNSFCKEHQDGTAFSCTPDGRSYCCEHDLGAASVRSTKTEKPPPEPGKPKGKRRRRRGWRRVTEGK

[4] = biological target: T2, Alkaline phosphatase, tissue-nonspecific isozyme (Homo sapiens, UniProt P05186); assay: inhibition of tissue-nonspecific alkaline phosphatase – biochemical, dose response (AID 488882); format: functional
T2 sequence (P05186 whole entry): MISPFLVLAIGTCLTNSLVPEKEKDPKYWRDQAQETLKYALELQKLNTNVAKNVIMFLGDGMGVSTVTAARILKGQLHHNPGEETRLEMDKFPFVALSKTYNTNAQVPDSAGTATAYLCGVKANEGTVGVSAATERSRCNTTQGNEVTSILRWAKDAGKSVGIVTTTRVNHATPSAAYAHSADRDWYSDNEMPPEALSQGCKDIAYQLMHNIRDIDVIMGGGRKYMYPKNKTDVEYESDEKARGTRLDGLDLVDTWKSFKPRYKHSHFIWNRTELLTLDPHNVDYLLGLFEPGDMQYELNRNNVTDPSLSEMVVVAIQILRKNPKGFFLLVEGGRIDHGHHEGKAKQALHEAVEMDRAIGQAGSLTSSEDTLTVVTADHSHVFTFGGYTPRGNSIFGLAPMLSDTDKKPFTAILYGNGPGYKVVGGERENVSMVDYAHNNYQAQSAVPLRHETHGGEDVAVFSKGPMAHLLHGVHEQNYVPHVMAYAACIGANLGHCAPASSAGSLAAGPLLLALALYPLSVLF

[5] = biological target: T3, Intestinal-type alkaline phosphatase (Homo sapiens, UniProt P09923); assay: Dose Response confirmation of uHTS hits from a small molecule inhibitors of human intestinal alkaline phosphatase via a luminescent assay. [Related pubchem assays (depositor defined):AID2544, AID2574]; format: functional
T3 sequence (P09923 whole entry): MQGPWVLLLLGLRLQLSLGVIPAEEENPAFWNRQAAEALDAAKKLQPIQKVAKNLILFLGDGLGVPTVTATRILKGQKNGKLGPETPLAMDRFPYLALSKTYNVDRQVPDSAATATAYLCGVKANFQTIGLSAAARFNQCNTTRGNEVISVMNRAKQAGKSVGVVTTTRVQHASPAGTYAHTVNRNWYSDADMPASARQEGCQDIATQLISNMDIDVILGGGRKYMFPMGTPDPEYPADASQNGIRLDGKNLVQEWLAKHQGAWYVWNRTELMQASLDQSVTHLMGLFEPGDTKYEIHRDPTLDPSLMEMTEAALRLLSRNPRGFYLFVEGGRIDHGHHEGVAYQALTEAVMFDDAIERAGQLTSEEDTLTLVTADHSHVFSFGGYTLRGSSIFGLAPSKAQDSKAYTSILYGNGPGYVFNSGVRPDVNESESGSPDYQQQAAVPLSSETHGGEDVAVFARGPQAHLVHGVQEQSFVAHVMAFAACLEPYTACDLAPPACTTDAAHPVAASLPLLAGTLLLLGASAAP

[6] = biological target: T4, Calpain-2 catalytic subunit (Sus scrofa, UniProt P43367); assay: pig calpain II inhibitor potency, dose response, biochemical, fluorogenic peptide substrate (AID 1420); format: functional
T4 sequence (P43367 whole entry): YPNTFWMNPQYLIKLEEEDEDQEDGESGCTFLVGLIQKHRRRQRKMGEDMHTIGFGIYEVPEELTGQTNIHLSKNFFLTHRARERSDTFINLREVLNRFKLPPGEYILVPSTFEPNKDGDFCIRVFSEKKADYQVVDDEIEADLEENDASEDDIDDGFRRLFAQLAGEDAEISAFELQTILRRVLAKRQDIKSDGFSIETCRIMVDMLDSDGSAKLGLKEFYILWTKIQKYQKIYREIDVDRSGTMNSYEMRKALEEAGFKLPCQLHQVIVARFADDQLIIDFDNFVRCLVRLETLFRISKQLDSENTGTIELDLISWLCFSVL

[7] = biological target: T5, Mannose-6-phosphate isomerase (Homo sapiens, UniProt P34949); assay: inhibitors of human PMI, primary screen, biochemical, fluorescence intensity, coupled assay (AID 1209)
T5 sequence (P34949 whole entry): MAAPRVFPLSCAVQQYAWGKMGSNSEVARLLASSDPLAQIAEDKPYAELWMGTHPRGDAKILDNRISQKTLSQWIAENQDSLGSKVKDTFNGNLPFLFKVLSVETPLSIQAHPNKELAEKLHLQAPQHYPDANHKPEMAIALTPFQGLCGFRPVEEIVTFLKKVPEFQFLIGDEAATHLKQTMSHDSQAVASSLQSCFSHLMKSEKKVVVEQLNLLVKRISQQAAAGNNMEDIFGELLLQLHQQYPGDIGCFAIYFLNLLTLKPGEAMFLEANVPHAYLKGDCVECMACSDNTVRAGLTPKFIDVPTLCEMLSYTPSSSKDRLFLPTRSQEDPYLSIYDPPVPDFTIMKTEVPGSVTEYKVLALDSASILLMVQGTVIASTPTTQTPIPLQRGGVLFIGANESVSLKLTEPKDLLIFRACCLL

[8] = biological target: T3, Intestinal-type alkaline phosphatase; assay: human IAP inhibitors, dose response, biochemical, luminescent, uHTS hits, set 2 (AID 488793); format: functional

Sequence of Intestinal-type alkaline phosphatase (Mus musculus, UniProt P24822) (P24822 whole entry): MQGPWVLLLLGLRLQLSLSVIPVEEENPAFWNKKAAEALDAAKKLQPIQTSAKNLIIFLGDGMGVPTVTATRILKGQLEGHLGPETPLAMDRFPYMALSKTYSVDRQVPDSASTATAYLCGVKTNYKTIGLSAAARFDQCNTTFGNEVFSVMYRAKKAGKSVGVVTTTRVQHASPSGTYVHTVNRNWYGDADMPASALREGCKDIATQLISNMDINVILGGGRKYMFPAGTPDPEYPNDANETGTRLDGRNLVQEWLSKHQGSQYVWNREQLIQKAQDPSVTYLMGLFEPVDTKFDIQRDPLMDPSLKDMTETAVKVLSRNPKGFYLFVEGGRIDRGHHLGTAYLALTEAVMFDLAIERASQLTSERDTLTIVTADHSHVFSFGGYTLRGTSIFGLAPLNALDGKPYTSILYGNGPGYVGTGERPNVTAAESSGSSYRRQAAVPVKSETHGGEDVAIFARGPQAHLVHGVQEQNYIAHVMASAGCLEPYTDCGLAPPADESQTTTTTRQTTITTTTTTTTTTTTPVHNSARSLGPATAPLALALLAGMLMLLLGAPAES

In the case of `CC[n+]1c(/C=C/c2c[nH]c3ccccc23)ccc2cc(C)ccc21`, the IC50 [1] is reported as 11 µM (active), the IC50 [2] is reported as 50 µM (inactive) and the AC50 [3] is reported as > 20 µM (inactive). The IC50 [4] was 10.8 µM (active), the IC50 [5] was 9.63 µM (active) and the IC50 [6] was 24.6 µM (not active). For the same compound, the IC50 [7] was > 50 µM (not active) and the IC50 [8] was 10.2 µM (active).
